Where two headings read alike, the source gives them in different places.

Common to all, as to type: biochemical
The target in one assay is T1, mouse MMP-12 (Mus musculus, UniProt P34960).
T1 construct: purchased R&D Systems 3467-MP
Description: In vitro mouse MMP-12 inhibition test (standard or high-sensitivity). An excerpt:
(§1) The MMP-mediated amidolytic cleavage of a suitable peptide substrate leads to an increase in fluorescent light here too. The signal intensity of the fluorescent light is directly proportional to the enzyme activity. The active concentration of a test compound at which half the enzyme is inhibited (50% signal intensity of the fluorescent light) is reported as the […].
Recombinant mouse MMP-12 (from R&D Systems, 3467-MP) is autocatalytically activated in accordance with the manufacturer's instructions. 1 μl of the test compound to be analysed (as a solution in DMSO, suitable concentrations, for example, 1 nM to 30 μM) is pipetted into 24 μl of activated enzyme (final concentration, for example, 1 nM) in reaction buffer (50 mM Tris/HCl pH 7.5, 10 mM CaCl2, 150 mM NaCl, 0.05% Brij®-35) in a white 384-hole microtiter plate (MTP). The enzymatic reaction is started by adding the intramolecularly quenched Mca-Lys-Pro-Leu-Gly-Leu-Dpa(Dnp)-Ala-Arg-NH2 substrate (final concentration, for example, 5 μM; R&D Systems, ES-010), so as to result in a total test volume of 50 μl. The course of the MMP-12 reaction is measured by measuring the fluorescence intensity (excitation 320 nm, emission 410 nm) over a suitable period of time (for example over 120 min at a temperature of 32° C.).
In this case, an enzyme concentration ten times lower is used (final concentration, for example, 0.1 nM) in order to achieve an elevated test sensitivity. The incubation period chosen for the test is correspondingly longer (for example 16 hours).

Another assay deals with T2, mouse MMP-8 (Mus musculus, UniProt O70138).
T2 construct: purchased R&D Systems 2904-MP
Description: In vitro mouse MMP-8 inhibition test.

A further assay concerns the target T3, mouse MMP-3 (Mus musculus, UniProt P28862).
T3 construct: purchased R&D Systems 548-MP
The assay is described as follows: In vitro mouse MMP-3 inhibition test.

The target in a further assay is T4, MMP-9 (Homo sapiens, UniProt P14780).
T4 construct: purchased R&D Systems 911-MP
Description: In vitro MMP-9 inhibition test.

Another assay addresses T5, MMP-1 (Homo sapiens, UniProt P03956).
T5 construct: purchased R&D Systems 901-MP
T5 sequence (P03956 100-469): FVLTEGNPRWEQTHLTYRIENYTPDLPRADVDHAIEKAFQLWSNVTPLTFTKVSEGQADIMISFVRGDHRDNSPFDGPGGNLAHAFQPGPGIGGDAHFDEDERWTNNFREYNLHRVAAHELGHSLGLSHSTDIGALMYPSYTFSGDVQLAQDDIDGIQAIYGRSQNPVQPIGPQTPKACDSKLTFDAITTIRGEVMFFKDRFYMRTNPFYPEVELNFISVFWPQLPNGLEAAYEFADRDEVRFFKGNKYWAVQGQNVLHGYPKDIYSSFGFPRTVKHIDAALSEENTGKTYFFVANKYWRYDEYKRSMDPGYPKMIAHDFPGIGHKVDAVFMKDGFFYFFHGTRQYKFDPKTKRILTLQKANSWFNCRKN
Description: In vitro MMP-1 inhibition test.
Source text: as §1
Recombinant MMP-1 (from R&D Systems, 901-MP) is chemically activated in accordance with the manufacturer's instructions using APMA. 1 μl of the test compound to be analysed (as a solution in DMSO, suitable concentrations, for example, 1 nM to 30 μM) is pipetted into 24 μl of activated enzyme (final concentration, for example, 2 nM) in reaction buffer (50 mM Tris/HCl pH 7.5, 10 mM CaCl2, 150 mM NaCl, 0.05% Brij®-35) in a white 384-hole microtiter plate (MTP). The enzymatic reaction is started by adding the intramolecularly quenched Mca-Pro-Leu-Gly-Leu-Dpa(Dnp)-Ala-Arg-NH2 substrate (final concentration, for example, 10 μM; R&D Systems, ES-001), so as to result in a total test volume of 50 μl. The course of the MMP-1 reaction is measured by measuring the fluorescence intensity (excitation 320 nm, emission 410 nm) over a suitable period of time (for example over 120 min at a temperature of 32° C.).

Assay [1] deals with T6, human macrophage elastase (HME/hMMP-12) (Homo sapiens, UniProt P39900).
T6 construct: 0.5 nM HME; purchased R&D Systems 917-MP
The assay is described as follows: In vitro HME inhibition test (standard or high-sensitivity). The procedure: The potency of the compounds according to the invention with respect to HME (MMP-12) is determined in an in vitro inhibition test. The HME-mediated amidolytic cleavage of a suitable peptide substrate leads to an increase in fluorescent light therein. The signal intensity of the fluorescent light is directly proportional to the enzyme activity. The active concentration of a test compound at which half the enzyme is inhibited (50% signal intensity of the fluorescent light) is reported as the IC50 value.
In a 384 hole microtiter plate, in a total test volume of 41 μl, the test buffer (0.1 M HEPES pH 7.4, 0.15 M NaCl, 0.03 M CaCl2, 0.004 mM ZnCl2, 0.02 M EDTA, 0.005% Brij®), the enzyme (0.5 nM HME; from R&D Systems, 917-MP, autocatalytic activation according to the manufacturer's instructions) and the intramolecularly quenched substrate [5 μM Mca-Pro-Leu-Gly-Leu-Glu-Glu-Ala-Dap(Dnp)-NH2; Bachem, M-2670] are incubated in the absence and presence of the test substance (as a solution in DMSO) at 37° C. for two hours. The fluorescence intensity of the test mixtures is measured (excitation […], emission 393 nm). The IC50 values are ascertained by plotting the fluorescent light intensity against the active ingredient concentration.
In this case, an enzyme concentration ten times lower is used (final concentration, for example, 0.05 nM) in order to achieve an elevated test sensitivity. The incubation period chosen for the test is correspondingly longer (for example 16 hours).

T6 sequence (P39900 106-470): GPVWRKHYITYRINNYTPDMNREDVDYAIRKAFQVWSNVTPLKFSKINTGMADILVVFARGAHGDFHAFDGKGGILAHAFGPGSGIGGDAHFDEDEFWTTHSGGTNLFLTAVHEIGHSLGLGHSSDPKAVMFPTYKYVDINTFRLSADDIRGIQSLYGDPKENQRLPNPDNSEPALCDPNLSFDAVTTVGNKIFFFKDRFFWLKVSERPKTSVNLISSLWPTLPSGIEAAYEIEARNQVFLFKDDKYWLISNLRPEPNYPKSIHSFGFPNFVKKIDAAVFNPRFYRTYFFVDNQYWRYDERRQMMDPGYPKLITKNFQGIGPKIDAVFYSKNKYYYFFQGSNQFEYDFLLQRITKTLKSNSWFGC
T3 sequence (P28862 100-477): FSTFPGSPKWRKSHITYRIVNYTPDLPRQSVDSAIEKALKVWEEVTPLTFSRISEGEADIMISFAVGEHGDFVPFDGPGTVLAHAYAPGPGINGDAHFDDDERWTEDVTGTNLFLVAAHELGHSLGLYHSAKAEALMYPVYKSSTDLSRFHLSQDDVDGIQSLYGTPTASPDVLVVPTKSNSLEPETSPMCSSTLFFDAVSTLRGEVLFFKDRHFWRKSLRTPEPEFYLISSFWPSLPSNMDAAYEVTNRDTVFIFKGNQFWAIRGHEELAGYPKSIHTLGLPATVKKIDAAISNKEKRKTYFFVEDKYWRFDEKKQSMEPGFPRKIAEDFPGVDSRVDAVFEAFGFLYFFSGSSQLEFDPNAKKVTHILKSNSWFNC
T4 sequence (P14780 107-707 limits assumed): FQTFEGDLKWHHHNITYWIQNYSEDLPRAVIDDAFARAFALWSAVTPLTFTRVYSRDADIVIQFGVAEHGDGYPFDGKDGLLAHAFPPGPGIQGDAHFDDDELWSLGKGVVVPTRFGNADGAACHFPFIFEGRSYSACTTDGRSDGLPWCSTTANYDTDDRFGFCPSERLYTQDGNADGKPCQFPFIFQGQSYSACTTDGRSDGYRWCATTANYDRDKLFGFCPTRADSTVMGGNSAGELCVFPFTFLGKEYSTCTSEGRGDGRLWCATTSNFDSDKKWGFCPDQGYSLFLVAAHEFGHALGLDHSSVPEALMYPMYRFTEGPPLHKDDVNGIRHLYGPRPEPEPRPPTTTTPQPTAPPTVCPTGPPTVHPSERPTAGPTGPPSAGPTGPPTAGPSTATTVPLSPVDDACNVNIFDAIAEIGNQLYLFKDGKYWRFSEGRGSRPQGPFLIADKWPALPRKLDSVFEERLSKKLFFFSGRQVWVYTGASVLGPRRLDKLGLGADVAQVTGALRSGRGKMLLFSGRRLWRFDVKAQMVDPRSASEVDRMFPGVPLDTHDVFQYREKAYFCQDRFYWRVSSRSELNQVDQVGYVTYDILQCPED
T2 sequence (O70138 101-465): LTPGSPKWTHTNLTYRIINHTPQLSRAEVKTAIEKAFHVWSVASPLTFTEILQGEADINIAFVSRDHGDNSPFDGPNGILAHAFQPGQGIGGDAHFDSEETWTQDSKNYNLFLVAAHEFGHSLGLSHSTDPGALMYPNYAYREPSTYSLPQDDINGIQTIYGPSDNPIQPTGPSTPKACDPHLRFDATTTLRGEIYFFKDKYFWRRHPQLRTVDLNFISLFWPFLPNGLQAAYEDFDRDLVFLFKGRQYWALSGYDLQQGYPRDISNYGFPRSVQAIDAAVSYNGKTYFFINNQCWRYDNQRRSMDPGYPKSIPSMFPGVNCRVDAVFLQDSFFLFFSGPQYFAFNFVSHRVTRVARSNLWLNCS
T1 sequence (P34960 110-473): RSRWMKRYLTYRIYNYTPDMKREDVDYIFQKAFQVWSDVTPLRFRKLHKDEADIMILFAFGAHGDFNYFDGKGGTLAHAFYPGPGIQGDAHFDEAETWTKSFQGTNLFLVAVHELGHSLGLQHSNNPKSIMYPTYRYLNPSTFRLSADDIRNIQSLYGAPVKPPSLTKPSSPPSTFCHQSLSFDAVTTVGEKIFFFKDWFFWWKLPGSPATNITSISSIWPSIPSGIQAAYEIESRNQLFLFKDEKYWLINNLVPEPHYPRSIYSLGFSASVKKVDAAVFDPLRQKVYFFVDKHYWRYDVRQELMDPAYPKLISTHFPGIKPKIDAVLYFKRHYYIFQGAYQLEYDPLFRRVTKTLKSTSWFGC

On to `O=C(O)[C@H]1[C@H](Cn2nnc3ccccc3c2=O)CC[C@@H]1C(=O)c1ccc(OCC2CCOCC2)cc1` (stereo in doubt) [Example 1, (+/−)-(1RS,2SR,5RS)-2-[(4-Oxo-1,2,3-benzotriazin-3(4H)-yl)methyl]-5-[4-(tetrahydro-2H-pyran-4-ylmethoxy)benzoyl]cyclopentanecarboxylic acid], for which the IC50 against mouse MMP-12 turned out to be 3.3 nM; against mouse MMP-8 it was 40 nM; on mouse MMP-3, 570 nM; at MMP-9 it was 450 nM; against MMP-1, 26000 nM; in assay [1] (absence of serum albumin (BSA), read-out: HME IC50 (−BSA)) it was 0.04 nM. The IC50 in assay [1] (standard or high-sensitivity HME inhibition test, read-out: HME/hMMP-12 IC50) was 0.04 nM.

The values above are taken from US20170114049A1, “2,5-DISUBSTITUTED CYCLOPENTANE CARBOXYLIC ACIDS FOR THE TREATMENT OF RESPIRATORY TRACT DISEASES” (BAYER PHARMA AKTIENGESELLSCHAFT, priority 2014, published 2017).
